Biological target: PI3K delta (Homo sapiens, UniProt O00329)
Test: Luciferase-coupled chemiluminescence kinase assay (ATP consumption, KinaseGlo)
Type: biochemical
In short: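 ATP consumption measured by KinaseGlo luciferase chemiluminescence after a 2 h reaction at ambient temperature, with ATP at or below the kinase KM. Ten inhibitor concentrations per curve; IC50 from four-parameter nonlinear regression.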

Sequence of PI3K delta (O00329 whole entry): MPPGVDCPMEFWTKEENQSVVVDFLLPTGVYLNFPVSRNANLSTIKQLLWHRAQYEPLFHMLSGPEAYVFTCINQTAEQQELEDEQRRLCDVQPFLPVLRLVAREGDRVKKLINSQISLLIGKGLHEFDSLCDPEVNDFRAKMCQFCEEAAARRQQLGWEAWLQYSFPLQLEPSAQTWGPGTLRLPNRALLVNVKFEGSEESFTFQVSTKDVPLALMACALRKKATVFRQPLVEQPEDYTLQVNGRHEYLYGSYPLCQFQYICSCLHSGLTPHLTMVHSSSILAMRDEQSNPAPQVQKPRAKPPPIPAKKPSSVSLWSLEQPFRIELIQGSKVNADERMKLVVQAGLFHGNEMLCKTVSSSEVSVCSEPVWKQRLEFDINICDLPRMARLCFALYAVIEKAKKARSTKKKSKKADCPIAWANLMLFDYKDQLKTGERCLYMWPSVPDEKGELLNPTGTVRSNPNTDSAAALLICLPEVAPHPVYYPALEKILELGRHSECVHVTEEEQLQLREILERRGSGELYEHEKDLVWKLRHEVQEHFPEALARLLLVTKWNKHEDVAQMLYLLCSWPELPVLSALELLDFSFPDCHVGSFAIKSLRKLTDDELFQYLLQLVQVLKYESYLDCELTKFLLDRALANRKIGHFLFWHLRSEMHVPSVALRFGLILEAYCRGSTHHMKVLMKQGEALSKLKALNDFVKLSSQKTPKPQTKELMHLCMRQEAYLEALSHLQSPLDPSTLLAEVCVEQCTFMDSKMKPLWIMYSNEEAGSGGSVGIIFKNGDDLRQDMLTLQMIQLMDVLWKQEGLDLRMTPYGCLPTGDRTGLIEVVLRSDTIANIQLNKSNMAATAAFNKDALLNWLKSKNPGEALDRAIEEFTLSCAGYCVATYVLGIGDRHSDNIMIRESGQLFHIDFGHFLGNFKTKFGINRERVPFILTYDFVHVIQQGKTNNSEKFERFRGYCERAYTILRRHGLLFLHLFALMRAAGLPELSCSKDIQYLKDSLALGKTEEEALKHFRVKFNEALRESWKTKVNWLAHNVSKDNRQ
Sequence of PI3K delta (P27986 whole entry partner): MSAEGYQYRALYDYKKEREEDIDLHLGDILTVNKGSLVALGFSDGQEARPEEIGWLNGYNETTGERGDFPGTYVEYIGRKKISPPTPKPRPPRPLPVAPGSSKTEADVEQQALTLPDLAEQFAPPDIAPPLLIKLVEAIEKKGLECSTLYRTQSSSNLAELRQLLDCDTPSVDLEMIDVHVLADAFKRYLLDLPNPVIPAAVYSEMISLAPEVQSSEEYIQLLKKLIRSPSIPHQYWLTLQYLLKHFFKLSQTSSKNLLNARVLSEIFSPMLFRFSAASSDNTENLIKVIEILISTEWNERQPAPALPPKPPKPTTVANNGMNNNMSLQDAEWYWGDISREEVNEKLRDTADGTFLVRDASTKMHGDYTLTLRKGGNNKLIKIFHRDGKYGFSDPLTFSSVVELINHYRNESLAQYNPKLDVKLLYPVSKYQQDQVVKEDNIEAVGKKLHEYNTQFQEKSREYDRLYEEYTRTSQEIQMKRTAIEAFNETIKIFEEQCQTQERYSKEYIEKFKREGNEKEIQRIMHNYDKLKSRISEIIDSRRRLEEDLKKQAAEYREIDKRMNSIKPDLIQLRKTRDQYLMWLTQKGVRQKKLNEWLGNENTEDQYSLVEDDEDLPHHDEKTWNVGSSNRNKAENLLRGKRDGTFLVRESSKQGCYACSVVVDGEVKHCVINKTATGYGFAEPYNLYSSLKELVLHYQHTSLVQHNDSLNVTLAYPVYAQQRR

Structure (SMILES)	IC50
CCCCNC(=O)c1nc2c(N3CCC(n4c(=O)[nH]c5ccccc54)CC3)ncnc2n1CC [Compound 157, N-butyl-9-ethyl-6-[4-(2-oxo-2,3-dihydro-1H-benzimidazol-1-yl)piperidin-1-yl]-9H-purine-8-carboxamide]	0.05 to 0.25 µM
CCn1c(C(=O)NCC2(O)CC2)nc2c(N3CCC(n4c(=O)[nH]c5ccccc54)CC3)ncnc21 [Compound 188, 9-ethyl-N-[(1-hydroxycyclopropyl)methyl]-6-[4-(2-oxo-2,3-dihydro-1H-benzimidazol-1-yl)piperidin-1-yl]-9H-purine-8-carboxamide]	< 0.05 µM
Cn1c(C(=O)NCC2CC2)nc2c(N3CCC(n4c(=O)[nH]c5cc(F)ccc54)CC3)ncnc21 [Compound 205, N-(cyclopropylmethyl)-6-[4-(5-fluoro-2-oxo-2,3-dihydro-1H-benzimidazol-1-yl)piperidin-1-yl]-9-methyl-9H-purine-8-carboxamide]	0.05 to 0.25 µM
Cn1c(-c2cc[nH]c2)nc2c(N3CCC(n4c(=O)[nH]c5ccccc54)CC3)ncnc21 [Compound 166, 1-{1-[9-methyl-8-(1H-pyrrol-3-yl)-9H-purin-6-yl]piperidin-4-yl}-1,3-dihydro-2H-benzimidazol-2-one]	0.5 to 1.5 µM
CC(NC(=O)c1nc2c(N3CCC(n4c(=O)[nH]c5ccccc54)CC3)ncnc2n1C)c1ccccc1 (stereo not drawn) [Compound 53, 9-methyl-6-[4-(2-oxo-2,3-dihydro-1H-benzimidazol-1-yl)piperidin-1-yl]-N-(1-phenylethyl)-9H-purine-8-carboxamide]	0.5 to 1.5 µM
CNc1ccc(-c2nc3c(N4CCC(n5c(=O)[nH]c6ccccc65)CC4)ncnc3n2C)cn1 [Compound 353, 1-(1-{9-methyl-8-[6-(methylamino)pyridin-3-yl]-9H-purin-6-yl}piperidin-4-yl)-1,3-dihydro-2H-benzimidazol-2-one]	< 0.05 µM
CCn1c(C(=O)NCCCCO)nc2c(N3CCC(n4c(=O)[nH]c5ccccc54)CC3)ncnc21 [Compound 195, 9-ethyl-N-(4-hydroxybutyl)-6-[4-(2-oxo-2,3-dihydro-1H-benzimidazol-1-yl)piperidin-1-yl]-9H-purine-8-carboxamide]	< 0.05 µM
Cc1ncc(-c2nc3c(N4CCC(n5c(=O)[nH]c6ccccc65)CC4)ncnc3n2C)cn1 [Compound 340, 1-{1-[9-methyl-8-(2-methylpyrimidin-5-yl)-9H-purin-6-yl]piperidin-4-yl}-1,3-dihydro-2H-benzimidazol-2-one]	< 0.05 µM
COc1ccccc1CNC(=O)c1nc2c(N3CCC4(CC3)C(=O)Nc3ccccc34)ncnc2n1C [Compound 26, 9-methyl-N-([2-(methyloxy)phenyl]methyl)-6-(2-oxo-1,2-dihydro-1′H-spiro[indole-3,4′-piperidin]-1′-yl)-9H-purine-8-carboxamide]	0.5 to 1.5 µM
CCn1c(-c2cn[nH]c2)nc2c(N3CCC4(CC3)C(=O)Nc3ccccc34)ncnc21 [Compound 252, 1′-[9-ethyl-8-(1H-pyrazol-4-yl)-9H-purin-6-yl]spiro[indole-3,4′-piperidin]-2(1H)-one]	< 0.05 µM
Cn1c(-n2cnc(C(F)(F)F)c2)nc2c(N3CCC(n4c(=O)[nH]c5ccccc54)CC3)ncnc21 [Compound 165, 1-(1-{9-methyl-8-[4-(trifluoromethyl)-1H-imidazol-1-yl]-9H-purin-6-yl}piperidin-4-yl)-1,3-dihydro-2H-benzimidazol-2-one]	0.05 to 0.25 µM
Cn1c(C(=O)NCC2CC2)nc2c(N3CCC4(CC3)C(=O)Nc3c(Cl)cccc34)ncnc21 [Compound 211, 6-(7-chloro-2-oxo-1,2-dihydro-1′H-spiro[indole-3,4′-piperidin]-1′-yl)-N-(cyclopropylmethyl)-9-methyl-9H-purine-8-carboxamide]	< 0.05 µM
Cn1c(C(=O)NCCCO)nc2c(N3CCC(n4c(=O)[nH]c5ccccc54)CC3)ncnc21 [Compound 48, N-(3-hydroxypropyl)-9-methyl-6-[4-(2-oxo-2,3-dihydro-1H-benzimidazol-1-yl)piperidin-1-yl]-9H-purine-8-carboxamide]	0.05 to 0.25 µM
CCCc1nnc(-c2nc3c(N4CCC(n5c(=O)[nH]c6ccccc65)CC4)ncnc3n2C)o1 [Compound 123, 1-{1-[9-methyl-8-(5-propyl-1,3,4-oxadiazol-2-yl)-9H-purin-6-yl]piperidin-4-yl}-1,3-dihydro-2H-benzimidazol-2-one]	< 0.05 µM
Cn1c(C(=O)N2CCCC2)nc2c(N3CCC(n4c(=O)[nH]c5ccccc54)CC3)ncnc21 [Compound 68, 1-{1-[9-methyl-8-(pyrrolidin-1-ylcarbonyl)-9H-purin-6-yl]piperidin-4-yl}-1,3-dihydro-2H-benzimidazol-2-one]	0.25 to 0.5 µM
CCn1c(-c2cnc(C)nc2)nc2c(N3CCC(n4c(=O)[nH]c5ccccc54)CC3)ncnc21 [Compound 342, 1-{1-[9-ethyl-8-(2-methylpyrimidin-5-yl)-9H-purin-6-yl]piperidin-4-yl}-1,3-dihydro-2H-benzimidazol-2-one]	< 0.05 µM
Cn1c(C(=O)OCC2CC2)nc2c(N3CCC(n4c(=O)[nH]c5ccccc54)CC3)ncnc21 [Compound 79, Cyclopropylmethyl 9-methyl-6-[4-(2-oxo-2,3-dihydro-1H-benzimidazol-1-yl)piperidin-1-yl]-9H-purine-8-carboxylate]	0.05 to 0.25 µM

Structure (SMILES)	IC50
CCOC(=O)Cn1cc(-c2nc3c(N4CCC(n5c(=O)[nH]c6ccccc65)CC4)ncnc3n2C)cn1 [Compound 181, ethyl (4-{9-methyl-6-[4-(2-oxo-2,3-dihydro-1H-benzimidazol-1-yl)piperidin-1-yl]-9H-purin-8-yl}-1H-pyrazol-1-yl)acetate]	0.25 to 0.5 µM
COc1ncc(-c2nc3c(N4CCC(n5c(=O)[nH]c6ccccc65)CC4)ncnc3n2C)cn1 [Compound 310, 1-(1-{9-methyl-8-[2-(methyloxy)pyrimidin-5-yl]-9H-purin-6-yl}piperidin-4-yl)-1,3-dihydro-2H-benzimidazol-2-one]	< 0.05 µM
Cc1nc(C(F)(F)F)ccc1-c1nc2c(N3CCC(n4c(=O)[nH]c5ccccc54)CC3)ncnc2n1C [Compound 284, 1-(1-{9-methyl-8-[2-methyl-6-(trifluoromethyl)pyridin-3-yl]-9H-purin-6-yl}piperidin-4-yl)-1,3-dihydro-2H-benzimidazol-2-one]	0.5 to 1.5 µM
Cn1c(-c2cncnc2)nc2c(N3CCC(n4c(=O)[nH]c5ccccc54)CC3)ncnc21 [Compound 271, 1-[1-(9-methyl-8-pyrimidin-5-yl-9H-purin-6-yl)piperidin-4-yl]-1,3-dihydro-2H-benzimidazol-2-one]	< 0.05 µM
Cn1cc(-c2nc3c(N4CCN(S(=O)(=O)c5ccc(Cl)c(Cl)c5)CC4)ncnc3n2C)cn1 [Compound 380, 6-{4-[(3,4-dichlorophenyl)sulfonyl]piperazin-1-yl}-9-methyl-8-(1-methyl-1H-pyrazol-4-yl)-9H-purine]	0.05 to 0.25 µM
CN(C)C(=O)c1nc2c(N3CCC4(CC3)C(=O)NCN4c3ccccc3)ncnc2n1C [Compound 7, N,N,9-Trimethyl-6-(4-oxo-1-phenyl-1,3,8-triazaspiro[4.5]dec-8-yl)-9H-purine-8-carboxamide]	0.5 to 1.5 µM
C#CCNC(=O)c1nc2c(N3CCC4(CC3)C(=O)Nc3ccccc34)ncnc2n1C [Compound 140, 9-methyl-6-(2-oxo-1,2-dihydro-1′H-spiro[indole-3,4′-piperidin]-1′-yl)-N-prop-2-yn-1-yl-9H-purine-8-carboxamide]	0.05 to 0.25 µM
CCn1cc(-c2nc3c(N4CCN(S(=O)(=O)c5ccccc5)CC4)ncnc3n2C)cn1 [Compound 367, 8-(1-ethyl-1H-pyrazol-4-yl)-9-methyl-6-[4-(phenylsulfonyl)piperazin-1-yl]-9H-purine]	0.05 to 0.25 µM
CNc1ncc(-c2nc3c(N4CCC(n5c(=O)[nH]c6ccccc65)CC4)ncnc3n2C)cn1 [Compound 309, 1-(1-{9-methyl-8-[2-(methylamino)pyrimidin-5-yl]-9H-purin-6-yl}piperidin-4-yl)-1,3-dihydro-2H-benzimidazol-2-one]	< 0.05 µM
Cn1c(C(=O)NC2CCc3ccccc32)nc2c(N3CCC4(CC3)C(=O)Nc3ccccc34)ncnc21 (stereo not drawn) [Compound 18, N-(2,3-dihydro-1H-inden-1-yl)-9-methyl-6-(2-oxo-1,2-dihydro-1′H-spiro[indole-3,4′-piperidin]-1′-yl)-9H-purine-8-carboxamide]	0.25 to 0.5 µM
Cn1c(-c2c[nH]c3ncccc23)nc2c(N3CCC(n4c(=O)[nH]c5ccccc54)CC3)ncnc21 [Compound 301, 1-{1-[9-methyl-8-(1H-pyrrolo[2,3-b]pyridin-3-yl)-9H-purin-6-yl]piperidin-4-yl}-1,3-dihydro-2H-benzimidazol-2-one]	< 0.05 µM
Cc1ncc(-c2nc3c(N4CCC(n5c(=O)[nH]c6ccccc65)CC4)ncnc3n2C)n1C [Compound 333, 1-{1-[8-(1,2-dimethyl-1H-imidazol-5-yl)-9-methyl-9H-purin-6-yl]piperidin-4-yl)-1,3-dihydro-2H-benzimidazol-2-one]	< 0.05 µM
Cn1c(-c2cnn(CC3CCC3)c2)nc2c(N3CCC(n4c(=O)[nH]c5ccccc54)CC3)ncnc21 [Compound 231]	< 0.05 µM
CCn1c(C(=O)NCc2nnc(C)o2)nc2c(N3CCC4(CC3)C(=O)Nc3ccccc34)ncnc21 [Compound 207, 9-ethyl-N-[(5-methyl-1,3,4-oxadiazol-2-yl)methyl]-6-(2-oxo-1,2-dihydro-1′H-spiro[indole-3,4′-piperidin]-1′-yl)-9H-purine-8-carboxamide]	0.25 to 0.5 µM
COc1cc(C)ccc1S(=O)(=O)N1CCN(c2ncnc3c2nc(-c2cnn(C)c2)n3C)CC1 [Compound 385, 9-methyl-6-(4-{[4-methyl-2-(methyloxy)phenyl]sulfonyl}-piperazin-1-yl)-8-(1-methyl-1H-pyrazol-4-yl)-9H-purine]	0.5 to 1.5 µM
Cn1cc(-c2nc3c(N4CCN(S(=O)(=O)c5ccccc5)CC4)ncnc3n2C)cn1 [Compound 355, 9-methyl-8-(1-methyl-1H-pyrazol-4-yl)-6-[4-(phenylsulfonyl)piperazin-1-yl]-9H-purine]	0.25 to 0.5 µM

From patent publication US20140058103A1, “Inhibitors of PI3K-Delta and Methods of Their Use and Manufacture” (Exelixis, Inc., priority 2010, published 2014)
